# Measurements: article PMC3481155, “AhR activation underlies the CYP1A autoinduction by A-998679 in rats” (Frontiers in Genetics, 2012)
# Key:
# Cyp1a1 = Cyp1a1 mRNA induction in primary rat hepatocytes; format: cell-based; details: 10 μM, 24 h, data not shown
# Procedure: Rat hepatocytes were isolated in a perfusion procedure as described previously (Elliget and Kolaja, [1983]; Waring et al., [2001]). The beagle dog hepatocytes were isolated in the same manner, except for adjustment of flow rate and buffer volume to scale to liver size. Cells were plated at a seeding density of 1.0 × 10^6 cells per well on 6-well, collagen-type I coated plates (BD Biosciences, Bedford, MA) in hepatocyte plating medium (Celsis, Baltimore, MD). Cells were allowed to attach for 24 h in a 37°C humidified incubator with a 5% CO2 atmosphere and were dosed for 24 h (rat) or 48 h (dog) with vehicle control [0.1% DMSO (v/v)] or 10 μM A-998679 in fresh treatment media (Celsis hepatocyte incubation media) every 24 h. After the last incubation, cells were lysed in 1 ml of Qiazol (Qiagen) and stored at −80°C until RNA isolation. Cryopreserved human hepatocytes (donor designation Hu4198; Invitrogen Life Technologies, Carlsbad, CA) were thawed and plated according to the manufacturer's protocol and allowed to incubate for 24 h. […]
# RNA samples were diluted with RNase-free molecular biology grade water to a concentration of 20 ng/μl total RNA. […] Results were analyzed by calculating the fold change of CYP1A1 and/or CYP1A2 mRNA levels normalized to 28S rRNA (ΔΔ Ct) in compound treated cells or tissues compared to vehicle levels. […]
# CYP2C19 = target: T1, CYP2C19 (Homo sapiens, UniProt P33261); assay: CYP inhibition evaluation in human liver microsomes, CYP2C19 (S-mephenytoin); format: in vitro ADME; details: probe substrate S-mephenytoin
# T1 construct: from tissue; host or cells: human liver microsomes
# T1 sequence (P33261 whole entry): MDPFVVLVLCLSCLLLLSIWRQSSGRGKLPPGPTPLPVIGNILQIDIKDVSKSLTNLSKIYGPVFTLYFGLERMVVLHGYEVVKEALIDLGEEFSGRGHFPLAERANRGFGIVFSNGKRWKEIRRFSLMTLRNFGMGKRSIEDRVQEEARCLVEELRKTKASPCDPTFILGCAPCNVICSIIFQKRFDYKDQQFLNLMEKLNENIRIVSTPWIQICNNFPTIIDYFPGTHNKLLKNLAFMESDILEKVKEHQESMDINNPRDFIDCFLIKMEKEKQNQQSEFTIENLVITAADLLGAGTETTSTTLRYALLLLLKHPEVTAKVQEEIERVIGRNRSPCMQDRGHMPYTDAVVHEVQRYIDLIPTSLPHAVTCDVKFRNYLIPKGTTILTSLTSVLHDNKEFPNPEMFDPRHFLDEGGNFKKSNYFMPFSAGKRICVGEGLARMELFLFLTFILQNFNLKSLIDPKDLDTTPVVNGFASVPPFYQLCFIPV
# Procedure: Incubations were performed in human liver microsomes using probe substrate concentrations similar to their corresponding Km values. Enzyme activity was evaluated in the presence of various concentrations of A-998679. The incubations consisted of the test article at varying concentrations (0–30 μM), probe substrate (concentration ~Km, see Table A2), human liver microsomal protein and 1 mM NADPH in 50 mM phosphate buffer at pH 7.4. Relative quantitation of the metabolites was obtained by LC-MS/MS using an ABSciex (Foster City, CA) API3000 or API4000 Qtrap hybrid linear ion trap mass spectrometer equipped with a TurboIonspray source using either PerkinElmer series 200 pumps or Agilent 1100 series pump with a Leap autosampler. Analytes were separated using a Phenomenex Prodigy ODS(3) 5 μm, 50 × 2.0 mm column at 50°C, eluted and detected under the specific conditions listed in Tables A3, A4, and A5. The analyte to internal standard peak area ratios were determined using Analyst 1.4 software (Applied Biosytems, Carlsbad, CA). The peak area ratios observed in the presence of test article were compared to the vehicle control in order to determine percent activity. To determine the IC50, the data were plotted as Log [dose] μM vs. % inhibition, and analyzed with a sigmoidal dose-response (variable slope) fitting equation. […]
# [1] = 5-day rat exploratory toxicology study (liver weight, clinical chemistry, histopathology); format: in vivo; details: 5 days
# Procedure: All animal experiments were conducted in accordance with the Guiding Principles in the Use of Animals in Toxicology (http://www.toxicology.org/ai/air/air6.asp) and were approved by Abbott's Institutional Animal Care and Use Committee (IACUC). Male Sprague-Dawley rats [Crl:CD®(SD)IGS BR], weighing ~250 g at study initiation were obtained from Charles River Laboratories, Inc. (Wilmington, MA). Rats were housed singly in ventilated, stainless steel, wire-bottom hanging cages and fed non-certified Rodent Chow (Harlan Labs, Madison, WI), and water ad libitum and acclimated for at least 5 days after arrival. Rats were randomly assigned to various treatment groups (3 rats/group) and were dosed once daily by oral gavage with vehicle (0.2% hydroxypropylmethylcellulose at a dose volume of 10 ml/kg) or with 30, 100, or 200 mg/kg of A-998679. All rats were fasted overnight after their last dose, weighed and sacrificed under isoflurane anesthesia. For histopathological evaluation, liver, heart, kidney, spleen, bone (sternum) with marrow, gastrointestinal tract (duodenum with pancreas, jejunum, ileum, cecum, and colon), thymus, and lung were fixed in formalin, routinely processed, and embedded in paraffin. Paraffin sections (4 μm) were stained with hematoxylin and eosin. Liver and small intestine (jejunum) were also flash frozen in liquid nitrogen and stored at −80°C until processing for gene expression profiling. Serum clinical chemistry parameters were quantified using an Aeroset Clinical Chemistry Analyzer (Abbott Laboratories, Abbott Park, IL) and included alanine amino transferase (ALT), aspartate amino transferase (AST), gamma glutamyltransferase (GGT), and alkaline phosphatase (ALP) activities.
compound,measurement,setting,value
"N#Cc1cccc(-c2noc(-c3cccnc3)n2)c1 [A-998679, 3-(5-pyridin-3-yl-1,2,4-oxadiazol-3-yl) benzonitrile]",Cyp1a1 mRNA induction,Cyp1a1,also observed
same,IC50,CYP2C19,> 30 µM
same,increase in relative liver weight,[1]; 200 mg/kg/day,~ 25%
same,clinical chemistry parameters,[1]; 30-200 mg/kg/day,No significant changes
same,histopathology,[1]; 30-200 mg/kg/day,No significant changes
same,change in relative liver weight,[1]; lower doses (30 and 100 mg/kg/day),no change
